Values joined by “and” are separate entries in the source; they are usually repeats but may differ in a detail not shown here. Equal entries are not always repeated.
What was measured:
[1] = Daily food consumption, Example 1; type: in vivo, dog; conditions: Ex.1, 250 mg/d; for Daily Food Intake: mean ± SEM
Protocol: Experimental Design: Forty Labrador Retrievers (labs) ranging in age from 1 to 3.5 years were incorporated into a two dietary treatment study. The two dietary treatments were based on feeding the test dogs the same low L-carnitine diet but adding 250 mg per day of L-carnitine to the L-carnitine group. Each of the L-carnitine dogs received the daily 250 mg of L-carnitine mixed with an additional 3.75 g sugar. The control dogs received 4 g of sugar each day. Twenty labs of equal gender, age, excitement level, frame size, body weight and genetic background were utilized for each of the two treatments. The labs utilized for the nutrition study were from a minimum of 6 different bitches. The lean body mass of the 40 test dogs was determined by scanning with the DEXA and the final key component utilized to assure equal groups. Prior to the start of the study, the labs were acclimated to the experimental diets for a minimum of 10 days. The labs were weighed at the beginning of the 90 day study and weighed every two weeks throughout the study. Feed consumption was determined daily by weighing feed provided and feed refusals. The quantity of food provided each dog on a daily basis was adjusted based on maintaining a minimum initial starting body weight throughout the study. The dog food was provided by Lonza Inc. and was equal to the minimum guaranteed analysis of Gold N Pro (MFA of Missouri) that the performance dogs had been consuming prior to the start of the study (Table 1).

[2] = test system: Labrador Retrievers; assay: Energy expenditure on treadmill (Oxymax open-circuit calorimeter), Example 2 part three; type: in vivo, dog; conditions: for Max energy expenditure / Mean energy expenditure: females
Protocol: Sixteen Labrador Retrievers ranging in age from 1.5 to 3 years were fed low carnitine basal diets with and without added L-carnitine for a 37 week period that included part one and two of the study. Eight (4 male and 4 female) of the test L-carnitine dogs were each fed 3.75 g sugar and 250 mg of L-carnitine, while the other eight dogs (4 male and 4 female) were fed only 4 g of sugar each day for the experimental period. The sixteen test dogs were fed the same diet for parts one, two, and three of the study. During part three of the study, the 16 test dogs were exclusively exercised on the industry sized canine treadmill. Initial Oxymax data was developed for each of the test dogs at various times and speeds in order to determine appropriate speeds on the treadmill required to achieve maximum VO2 concentration. The dogs were run for 15 minutes at 6.5 mph to determine VO2 max. The 16 test dogs were then ran at 50% VO2 max (equivalent to 4 mph) on the treadmill for 30 minutes to determine total energy expenditure (heat production). The system used to acquire information on volume of oxygen consumption and energy expenditure was an Open-Circuit calorimeter, which employed air from the surrounding environment. A mask specially designed for dogs was used to recover the gas sample and ventilate the dog. A small sample was drawn for gas analysis and dried to assure that the readings were made in a sample that was not under the influence of water vapor air exiting the chamber. The O2 and CO2 sensors were connected to software, and instant values of O2 and CO2 were measured. The 16 test dogs (8 L-carnitine dogs, 4 male and 4 female, and 8 control dogs, 4 male and 4 female) were exercised at a warm up speed of 2 mph for 5 minutes prior to running at VO2 max for 15 minutes at 6.5 mph. The next week, the test dogs ran again at a warm up speed of 2 mph for 5 minutes and then at 50% VO2 max for 30 minutes at 4 mph. Energy expenditure was calculated using the formula for dogs (EE (kcal/d)=3.94 VO2+1.11 V CO2) (Weir, […]). The maximum and mean energy expenditure was also calculated. Energy expenditure was reported at Kcal/metabolic body weight (Kg^0.75)/d as normally expressed in the literature for dogs.

[3] = Ex.2 part three, 250 mg/d, 6.5 mph (VO2 max)
[4] = Ex.2 part three, 250 mg/d, 50% VO2 max (4 mph, 30 min)
[5] = combined speeds 4.0 and 6.5 (50% VO2 Max and VO2 Max), diet main effect, both genders
[6] = combined speeds 4.0 and 6.5 (50% VO2 Max and VO2 Max), female dogs
[7] = combined speeds 4.0 and 6.5 (50% VO2 Max and VO2 Max), male dogs
[8] = treadmill speed 4 for 30 min (50% VO2 Max), diet main effect, both genders
[9] = treadmill speed 4 for 30 min (50% VO2 Max), female dogs
[10] = treadmill speed 4 for 30 min (50% VO2 Max), male dogs
[11] = treadmill speed 6.5 for 15 min (VO2 Max), diet main effect, both genders
[12] = treadmill speed 6.5 for 15 min (VO2 Max), female dogs
[13] = treadmill speed 6.5 for 15 min (VO2 Max), male dogs

C[N+](C)(C)C[C@H](O)CC(=O)[O-] [L-carnitine]
Daily Food Intake ([1]; Week 2): 723 ± 26 n = 20 g | Daily Food Intake ([1]; Week 4): 636 ± 30 n = 20 g | Daily Food Intake ([1]; Week 5): 639 ± 27 n = 20 g | Daily Food Intake ([1]; Week 6): 651 ± 26 n = 20 g | Daily Food Intake ([1]; Week 7): 626 ± 24 n = 20 g | Daily Food Intake ([1]; Week 8): 626 ± 24 n = 20 g | Daily Food Intake ([1]; Week 9): 622 ± 26 n = 20 g | Daily Food Intake ([1]; Week 10): 570 ± 25 n = 20 g | Daily Food Intake ([1]; Week 11): 577 ± 24 n = 20 g | Daily Food Intake ([1]; Week 13): 555 ± 20 n = 20 g | Food consumption vs control ([1]; over the entire 13 wk period): not significantly different | Daily Food Intake ([1]; overall Average of 13 wk study): 626 g and 626 ± 24 n = 20 g | Additional heat expenditure vs non-L-carnitine diet ([2]; Ex.2 part three, 250 mg/d, female running at 50% of VO2 Max): 122 kcal/kg BW^0.75/d | Max energy expenditure [2, 3]: 961 kcal/kgBW^0.75/d | Mean energy expenditure [2, 3]: 815 kcal/kgBW^0.75/d | Max energy expenditure [2, 4]: 794 kcal/kg^0.75/d | Mean energy expenditure [2, 4]: 598 kcal/kg^0.75/d | Max and mean energy expenditure vs low carnitine dogs ([2]; Ex.2 part three, 250 mg/d, males, Tables 35 and 36): not significantly different | Quantity of low Carnitine basal food saved ([2]; Ex.2 part three, 250 mg/d, working female running at 50% VO2 Max (4 mph) for one hour): 15.18 g | Max EE [2, 5]: 793 Kcal/Kg^0.75/d | Mean EE [2, 5]: 675 Kcal/Kg^0.75/d | Max EE [2, 6]: 838 Kcal/Kg^0.75/d | Mean EE [2, 6]: 679 Kcal/Kg^0.75/d | Max EE [2, 7]: 748 Kcal/Kg^0.75/d | Mean EE [2, 7]: 671 Kcal/Kg^0.75/d | Max EE [2, 8]: 716 Kcal/Kg^0.75/d | Mean EE [2, 8]: 576 Kcal/Kg^0.75/d | Max EE [2, 9]: 794 a Kcal/Kg^0.75/d | Mean EE [2, 9]: 598 a Kcal/Kg^0.75/d | Max EE [2, 10]: 637 ab Kcal/Kg^0.75/d | Mean EE [2, 10]: 554 ab Kcal/Kg^0.75/d | Max EE [2, 11]: 909 Kcal/Kg^0.75/d | Mean EE [2, 11]: 801 Kcal/Kg^0.75/d | Max EE [2, 12]: 961 Kcal/Kg^0.75/d | Mean EE [2, 12]: 815 Kcal/Kg^0.75/d | Max EE [2, 13]: 858 Kcal/Kg^0.75/d | Mean EE [2, 13]: 788 Kcal/Kg^0.75/d

Source: patent publication US10016382B2, “Method for decreasing skeletal muscle damage and/or oxidative stress in mammals” (LONZA INC., priority 2014, dated 2018)
